“Also recorded” adds a separate entry of the source. Blank lines part the entries; values can stand above or below the substance they belong to. Non-standard residues stand in square brackets, D forms with d. pGlu = O=C1CC[C@@H](C(=O)O)N1
Columns and labels:
Male piglets = assay: Immunocastration of pigs: testis size and testis weight after immunization; format: in vivo, pig; conditions: for testis weight (g) (median (range)) / number responders/total number: Table 2; for testis weight (g) (median (range)): after slaughter at 13 wpv; for number responders/total number: effectiveness according to testis weight; for testis weight (median range): Table 3; for animals that did not respond to the immunization: number of animals per group of 7
Protocol: Male piglets, approximately 10 weeks of age, were involved in this experiment. The crossbred piglets were housed in half-slatted pens and were given ad libitum access to feed and water.
The piglets were randomly assigned to the treatments, 6 or 7 piglets per treatment. All animals were injected with 2 ml emulsion containing the dimerized tandem GnRH conjugates (i.e., […] peptide) or an emulsion without antigen. Injections were administered intramuscularly in the neck at the start of the experiment (day 0) and 7 weeks later (7 wpv). Thirteen weeks after initial immunization (13 wpv) all animals were slaughtered.
Animals were weighed at day 0 and 7 and 13 wpv. Testis sizes were determined by measuring testis length with Vernier calipers at day 0, and 7, 10 and 13 weeks thereafter. Testis sizes were recorded as average of both testicles.
After slaughter testes were removed, dissected free of epididymes and weighed. Testes weights were recorded as average of both testicles.

[1] = test system: peptides used for immunization; assay: Peptide antibodies ELISA of antisera; format: in vivo, pig; conditions: for anti peptide titer at 10 wpv: Table 3, mean titer against the peptide used for immunization
Protocol: Antibodies to the peptides used for immunization were determined with an ELISA. Peptides were coated in the wells of a microtitreplate using glutardialdehyde (GDA). GDA was coated to the surface of the wells by incubation with 0.2% GDA in 0.1 M phosphate buffer (pH 5) for 4 hours at room temperature. Plates were rinsed 3 times for 10 minutes with 0.1 M phosphate buffer (pH 8). One microgram peptide in […] phosphate buffer (0.1 M, pH 8) was coated per well by incubating for 3 hours at 37° C. Plates were stored at −20° C. until used. Thawed plates were rinsed 3 times for 10 minutes with milli Q water containing 8.2 g NaCl, 1.15 g Na2HPO4.2H2O, 0.20 g NaH2PO4.2H2O and 5 ml of a 10% Tween 80 solution in water per liter water.
Serial serum dilutions of the antipeptide sera were allowed to react with the coated peptides for 1 hour at 25° C. After rinsing 3 times for 10 minutes, goat-anti-pig IgG coupled to horseradish peroxidase (Dako, Glastrup, Denmark) was introduced as second antibody for 1 hour and ABTS (Boehringer, Mannheim, Germany) (([…] (2 g/100 ml) in 10 ml substrate buffer to which […] H2O2 (3% solution)) was used as substrate. Absorption was measured at 405 nm.

^125I-GnRH = assay: GnRH antibodies: binding of pig antisera to 125I-GnRH; format: in vivo; conditions: for GnRH binding (average): Table 3, GnRH antibody binding percentage of 125I-GnRH, average per treatment
Protocol: Antibodies to GnRH were determined as described by Meloen et al. (Vaccine 12, 741-746 (1994)). Serial dilutions of the pig antisera were allowed to bind to ^125I-GnRH. Titers are expressed as percentage binding of ^125I-GnRH at a given serum dilution.
(§1) Serum samples of the 10 wpv bleeding (3 weeks post booster immunization) were diluted 1/10000 in PBS with 0.4% BSA (dilution buffer). Fifty μl serum dilution was put in microwell plates and 25 μl peptide solution (0, 0.25, 2.5 or 25 pmol peptide in dilution buffer per well) was added. This mixture was allowed to incubate for 24 hours at 4° C. The next day, 25 μl iodinated GnRH (approximately 13000 cpm) was added and after overnight storage (4° C.) unbound peptide was separated from bound peptide with charcoal. After centrifugation, supernatant was separated, counted and the percentage of iodinated GnRH bound to the antibodies was calculated.

testosterone = assay: Testosterone levels in serum (Coat-a-Count kit); format: in vivo, pig; conditions: for testosterone (pmol/ml) at 13 wpv median (range): Table 3, serum, n.d. = not detectable; for testosterone level (in words): after immunization
Protocol: Blood samples were taken via puncture of the vena jugularis on the same days testis sizes were measured, and also 4 weeks after the initial immunization. Blood samples were kept overnight at 4° C. and the next day serum was obtained by centrifugation (1500 g, 15 min). Serum samples were stored at −20° C. until assayed.
Testosterone levels in serum were determined using a Coat-a-Count kit purchased from DPC laboratories, Los Angeles, Calif.

GnRH-II = assay: GnRH antibody binding competitive radioimmunoassay, competition by GnRH-II; set-up: species or system pig; conditions: for sera with reduced binding to iodinated GnRH after competition by GnRH-II / binding of antibodies to GnRH-II: 10 wpv sera; for sera with reduced binding to iodinated GnRH after competition by GnRH-II / animals whose 10 wpv sera did not bind to GnRH-II: 1/10000 dilution; for sera with reduced binding to iodinated GnRH after competition by GnRH-II: share of sera per treatment; for binding of antibodies to GnRH-II: substantially all animals of the group; for animals whose 10 wpv sera did not bind to GnRH-II: 25 pmol peptide per well
Protocol: To determine whether antibodies raised by the GnRH vaccines according to the present invention discriminated between GnRH-I and GnRH-II, a GnRH antibody binding assay was performed in order to determine whether antibodies rose against GnRH-I-tandem dimer peptide or its alanine replacement analogs bind to GnRH-II or lack binding to GnRH-II. Serum dilutions were preincubated with either GnRH-I, GnRH-II, a control peptide, or no peptide. Next, iodinated GnRH-I was added to compete with the preincubated peptides for binding to the antibodies.
A GnRH antibody binding competitive radioimmunoassay was performed in order to determine whether antibodies raised against G6k-GnRH-tandem (SEQ ID NO: 9) dimer peptide or its alanine replacement analogs bind to GnRH-II or lack binding to GnRH-II. Serum dilutions were preincubated with either GnRH-I, GnRH-II, a control peptide or no peptide. Next, iodinated GnRH-I was added to compete with the preincubated peptides for binding to the antibodies.
This procedure was performed for serum collected before and after booster immunization, as specificity of the antibodies may increase after booster immunization due to antibody maturation.
as §1
Antibodies collected after the first immunization (7 wpv) were tested in a 1/2000 serum dilution and only one peptide dilution was tested (25 pmol/well).

[2] = 7 wpv (before booster), 1/2000 dilution, 25 pmol/well

Substance: G10A-G6k-GnRH-tandem ([pGlu]HWSY[dK]LRPAQHWSY[dK]LRPAC-NH2; also: dimerized through Cys 21)
- testes weight (in words) (Male piglets): low testes weight
- testis weight (g) (median (range)) (Male piglets): 14 (11-39) g
- number responders/total number (Male piglets): 7/7
- testis weight (median range) (Male piglets): 14 (11-39)
- anti peptide titer at 10 wpv [1]: 3.19
- GnRH binding (average) (^125I-GnRH): 17.6%
- testosterone (pmol/ml) at 13 wpv median (range) (testosterone): n.d. (n.d.)
- testosterone level (in words) (testosterone): undetectable testosterone levels; also recorded: low testosterone level
- sera with reduced binding to iodinated GnRH after competition by GnRH-II (GnRH-II): all sera

Substance: L7A-G6k-GnRH-tandem ([pGlu]HWSY[dK]ARPGQHWSY[dK]ARPGC-NH2; also: dimer via Cys21)
- testis weight (g) (median (range)) (Male piglets): 20 (12-195) g
- number responders/total number (Male piglets): 6/7
- testis weight (median range) (Male piglets): 20 (12-195)
- animals that did not respond to the immunization (Male piglets): 1
- anti peptide titer at 10 wpv [1]: 3.52
- GnRH binding (average) (^125I-GnRH): 17.6%
- sera with reduced binding to iodinated GnRH after competition by GnRH-II (GnRH-II): half of the sera

Substance: P9A-G6k-GnRH-tandem-dimer conjugate ([pGlu]HWSY[dK]LRAGQHWSY[dK]LRAGC-NH2; also: dimerized through Cys 21, ovalbumin conjugate)
- testis weight (g) (median (range)) (Male piglets): 23 (8-300) g
- number responders/total number (Male piglets): 6/7
- testis weight (median range) (Male piglets): 23 (8-300)
- animals that did not respond to the immunization (Male piglets): 1
- antibody titers against the peptides used for immunization (in words) [1]: lower than peptide antibody titers of other treatments
- anti peptide titer at 10 wpv [1]: 2.62
- GnRH binding (average) (^125I-GnRH): 15.8%
- sera with reduced binding to iodinated GnRH after competition by GnRH-II (GnRH-II): most of the sera

Substance: R8A-G6k-GnRH-tandem ([pGlu]HWSY[dK]LAPGQHWSY[dK]LAPGC-NH2; also: dimer via Cys21)
- testes weight (in words) (Male piglets): low testes weight
- testis weight (g) (median (range)) (Male piglets): 15 (10-19) g
- number responders/total number (Male piglets): 7/7
- testis weight (median range) (Male piglets): 15 (10-19)
- anti peptide titer at 10 wpv [1]: 3.34
- GnRH binding (average) (^125I-GnRH): 17.7%
- testosterone (pmol/ml) at 13 wpv median (range) (testosterone): n.d. (n.d.)
- testosterone level (in words) (testosterone): undetectable testosterone levels; also recorded: low testosterone level
- sera with reduced binding to iodinated GnRH after competition by GnRH-II (GnRH-II): all sera

- binding of antibodies to GnRH-II (GnRH-II): completely lacked binding to GnRH-II
Substance: S4A-G6k-GnRH-tandem ([pGlu]HWAY[dK]LRPGQHWAY[dK]LRPGC-NH2; also: dimer via Cys21)
- testes weight (in words) (Male piglets): effective in terms of low testes weights; also recorded: low testes weight
- testis weight (g) (median (range)) (Male piglets): 36 (10-69) g
- number responders/total number (Male piglets): 7/7
- testis weight (median range) (Male piglets): 36 (10-69)
- anti peptide titer at 10 wpv [1]: 3.19
- GnRH binding (average) (^125I-GnRH): 16.9%
- testosterone (pmol/ml) at 13 wpv median (range) (testosterone): n.d. (n.d.)
- testosterone level (in words) (testosterone): undetectable testosterone levels; also recorded: low testosterone level
- animals whose prebooster sera showed binding to GnRH-II (GnRH-II; [2]): all animals
- animals whose 10 wpv sera did not bind to GnRH-II (GnRH-II): 6 out of 7

Substance: Y5A-G6k-GnRH-tandem ([pGlu]HWSA[dK]LRPGQHWSA[dK]LRPGC-NH2; also: dimer via Cys21)
- testis weight (g) (median (range)) (Male piglets): 44 (15-235) g
- number responders/total number (Male piglets): 5/7
- testis weight (median range) (Male piglets): 44 (15-235)
- animals that did not respond to the immunization (Male piglets): 2
- anti peptide titer at 10 wpv [1]: 2.92
- GnRH binding (average) (^125I-GnRH): 11.3%
- sera with reduced binding to iodinated GnRH after competition by GnRH-II (GnRH-II): half of the sera

- binding of antibodies to GnRH-II (GnRH-II): completely lacked binding to GnRH-II
Substance: pE1A-G6k-GnRH-tandem-dimer OVA conjugate (Ac-AHWSY[dK]LRPGAHWSY[dK]LRPGC-NH2; also: dimerized through Cys 21, ovalbumin conjugate)
- testes weight (in words) (Male piglets): effective in terms of low testes weights
- testis weight (g) (median (range)) (Male piglets): 36 (16-65) g
- number responders/total number (Male piglets): 7/7
- testis weight (median range) (Male piglets): 36 (16-65)
- anti peptide titer at 10 wpv [1]: 3.24
- prebooster sera with no binding to iodinated GnRH (^125I-GnRH; 7 wpv (before booster), 1/2000 dilution): one
- GnRH binding (average) (^125I-GnRH): 15.7%
- animals whose prebooster sera showed binding to GnRH-II (GnRH-II; [2]): 4 out of 7
- prebooster sera that did not recognize GnRH-II (GnRH-II; [2]): Two
- animals whose 10 wpv sera did not bind to GnRH-II (GnRH-II): 6 out of 7

Source: patent publication US7361349B2, “Peptide, immunogenic composition and vaccine or medical preparation, a method to immunize animals against the hormone LHRH, and analogs of the LHRH tandem repeat peptide and their use as vaccine” (Pepscan Systems B.V., priority 1996, dated 2008)
